Source: US20090258942A1 (priority 2008, published 2009)

Tests used:
[1] = system: primary invasive breast cancer; conditions: women at high risk for breast cancer; cited from earlier work
[2] = system: TNF-RE tkLuc; experiment: TNF-RE tkLuc reporter, effect of antiestrogens; type: cell-based; conditions: in contrast to E2
Source text: (§1) Light emission at 560 nm is conveniently quantified in optical density units (O.D.560 nm).

[3] = system: estrogen receptor-positive breast cancer; conditions: five years of therapy; cited from earlier work
[4] = target: estrogen receptor beta (ERβ) (Homo sapiens, UniProt Q92731); conditions: added to (a), (b), (c) or (d); FIGS. 4a-4d
Chain of estrogen receptor beta (ERβ) (Q92731 whole entry): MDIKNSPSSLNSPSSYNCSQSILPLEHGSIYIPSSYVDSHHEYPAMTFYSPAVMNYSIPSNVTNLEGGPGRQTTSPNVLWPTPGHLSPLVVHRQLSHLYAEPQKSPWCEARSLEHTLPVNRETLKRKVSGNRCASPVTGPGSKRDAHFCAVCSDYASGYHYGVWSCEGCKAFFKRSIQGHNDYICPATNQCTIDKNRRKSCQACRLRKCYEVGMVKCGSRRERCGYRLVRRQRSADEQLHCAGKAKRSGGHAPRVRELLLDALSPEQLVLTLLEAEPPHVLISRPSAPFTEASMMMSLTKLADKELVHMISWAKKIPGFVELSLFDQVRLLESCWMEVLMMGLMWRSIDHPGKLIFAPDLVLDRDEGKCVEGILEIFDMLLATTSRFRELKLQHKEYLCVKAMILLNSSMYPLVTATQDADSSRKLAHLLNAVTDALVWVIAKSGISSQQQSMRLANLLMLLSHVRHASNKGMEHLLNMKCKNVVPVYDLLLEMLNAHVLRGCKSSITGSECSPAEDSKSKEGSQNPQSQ

[5] = system: breast cancer; conditions: among 5129 women in the treatment group; median follow-up 40 months; cited from earlier work
[6] = system: MCF-7 breast cancer xenografts; experiment: MCF-7 kidney capsule xenografts; conditions: 28 days; E2 0.5 mg/h, Calycosin 2.5 mg/h in saline; FIG. 5
Procedure: MCF-7 xenografts were introduced into nude mouse kidneys. Mice were randomized to three treatment groups. […] Each treatment group was treated for 28 days, after which mice were euthanized and the kidneys containing the xenografts were excised, photographed and weighed.

[7] = target: ERβ (Homo sapiens, UniProt Q92731); conditions: in the presence of ERβ
Chain of ERβ (Q92731 whole entry): as above
Source text: as §1

Q: Which results are given for `CC/C(=C(\c1ccccc1)c1ccc(OCCN(C)C)cc1)c1ccccc1` [tamoxifen]?
A: reduction of the risk of primary invasive breast cancer [1]: 49%; activation of TNF-RE tkLuc [2]: 2 fold; reduction of mortality from breast cancer [3]: 22%; reduction of the risk of recurrences [3]: 42%

Q: For `C[C@]12CC[C@@H]3c4ccc(O)cc4C[C@@H](CCCCCCCCC[S+]([O-])CCCC(F)(F)C(F)(F)F)[C@H]3[C@@H]1CC[C@@H]2O` (stereo partly shown) [ICI 182780], which “activation of TNF-RE tkLuc” value [2] is on record?
A: 2 fold

Q: For `O=C(c1ccc(OCCN2CCCCC2)cc1)c1c(-c2ccc(O)cc2)sc2cc(O)ccc12` [raloxifene], which “effect of addition on ERE activation by compounds (a)-(d) through ERβ” value [4] is on record?
A: reduced this activation

Q: What about the “activation of TNF-RE tkLuc” value [2] of the same molecule?
A: 2 fold

Q: What about the “cases of breast cancer” value [5] of the same molecule?
A: 13 cases

Q: With `COc1ccc(-c2coc3cc(O)ccc3c2=O)cc1O` [Calycosin, 3-(4-methoxy-3-hydroxyphenyl)-7-hydroxycoumarin] as the molecule, how does the “growth of MCF-7 kidney capsule xenografts as compared to control” value [6] read?
A: inhibits the growth of MCF-7 breast cancer xenografts

Q: With `C[C@]12CC[C@@H]3c4ccc(O)cc4CC[C@H]3[C@@H]1CC[C@@H]2O` [E2, estradiol] as the molecule, how does the “repression of TNF-α activation of TNF-RE tkLuc” value [7] read?
A: 60-80%
